Values of other authors as cited in US20210177743A1, “Self-Assembling Multi-Domain Peptide Based Hydrogels” (New Jersey Institute of Technology, priority 2018, published 2021).

Tested on: hepatocytes with low LDL receptors due to PCSK9

Sequence: TVFTSWEEYLDWV [Pep2-8]
- LDL receptors on the cell surface: restore the receptors to the cell surface
